Experimental data taken from ChEMBL document CHEMBL1136564, “Sordaricin antifungal agents” (2003).
Values after ≈ are worked out from the molar mass of the structure shown.

Legend:
Nakaseomyces glabratus = assay: Minimum inhibitory concentration required to inhibit 90 to 100% visible growth of Candida glabrata; assay type: functional
Candida albicans = assay: Minimum inhibitory concentration to inhibit 90 to 100% visible growth of Candida albicans; assay type: functional

Row | Compound | MIC (Nakaseomyces glabratus) [µg/mL] | MIC (Candida albicans) [µg/mL]
1 | CC(C)C1=CC2CC3(C=O)C4CC[C@@H](C)C4CC2(CCOC(=O)CC(C)(C)C)C13C(=O)O (stereo partly drawn) | 4 (≈ 9 µM) | < 0.06
2 | CC(C)C1=CC2CC3(C=O)C4CC[C@@H](C)C4CC2(CCOC(=O)c2cccc(C(=O)O)n2)C13C(=O)O (stereo partly drawn) | > 128 | > 128
3 | CSc1ccc(CC(=O)OCCC23CC4C(CC[C@H]4C)C4(C=O)CC2C=C(C(C)C)C43C(=O)O)cc1 (stereo partly drawn) | > 128 | 0.5 (≈ 0.979 µM)
4 | CC(C)C1=CC2CC3(C=O)C4CC[C@@H](C)C4CC2(CCO)C13C(=O)O (stereo partly drawn) | > 128 | > 128
5 | CCCCCCCCCCCCCCCCC(=O)C12C[C@@H]3[C@H](C)CC[C@H]3C3(C=O)CC1C=C(C(C)C)[C@@]23C(=O)O | > 128 | > 128
6 | CC(C)C1=CC2CC3(C=O)C4CC[C@@H](C)C4CC2(CCOC(=O)c2cccs2)C13C(=O)O (stereo partly drawn) | > 128 | > 128
7 | CC(C)C1=CC2CC3(C=O)C4CC[C@@H](C)C4CC2(CCOC(=O)c2cnc(O)nc2O)C13C(=O)O (stereo partly drawn) | > 128 | > 128
8 | CC(C)C1=CC2CC3(C=O)C4CC[C@@H](C)C4CC2(CCOC(=O)c2cnc4ccccc4c2)C13C(=O)O (stereo partly drawn) | > 128 | 4 (≈ 7.97 µM)
9 | CC(C)C1=CC2CC3(C=O)C4CC[C@@H](C)C4CC2(CCOC(=O)c2cc4ccccc4o2)C13C(=O)O (stereo partly drawn) | > 128 | > 128
10 | CC(C)CCOCCC12CC3C(CC[C@H]3C)C3(C=O)CC1C=C(C(C)C)C32C(=O)O (stereo partly drawn) | 64 (≈ 154 µM) | 2 (≈ 4.8 µM)
11 | CC(C)C1=CC2CC3(C=O)C4CC[C@@H](C)C4CC2(CCOC(=O)CNC(=O)OC(C)(C)C)C13C(=O)O (stereo partly drawn) | > 128 | 128 (≈ 254 µM)
12 | C=CCCCCC(=O)OCCC12CC3C(CC[C@H]3C)C3(C=O)CC1C=C(C(C)C)C32C(=O)O (stereo partly drawn) | 8 (≈ 17.5 µM) | < 0.06
13 | CCCOc1ccc(C(=O)OCCC23CC4C(CC[C@H]4C)C4(C=O)CC2C=C(C(C)C)C43C(=O)O)cc1 (stereo partly drawn) | > 128 | 128 (≈ 252 µM)
14 | CCCCCCCCCCCCCCCCC(O)C12C[C@@H]3[C@H](C)CC[C@H]3C3(C=O)CC1C=C(C(C)C)[C@@]23C(=O)O (stereo partly drawn) | > 128 | > 128
15 | CC(C)C1=CC2CC3(C=O)C4CC[C@@H](C)C4CC2(CCOC(=O)CCNC(=O)OC(C)(C)C)C13C(=O)O (stereo partly drawn) | > 128 | 64 (≈ 124 µM)
16 | CC(C)C1=CC2CC3(C=O)C4CC[C@@H](C)C4CC2(CCOC(=O)c2cccn2C)C13C(=O)O (stereo partly drawn) | > 128 | > 128

Row | Compound | MIC (Nakaseomyces glabratus) [µg/mL] | MIC (Candida albicans) [µg/mL]
17 | CC(C)C1=CC2CC3(C=O)[C@@H]4CC[C@@H](C)[C@H]4CC2(C(=O)C#CC(C)(C)C)[C@]13C(=O)O | > 128 | > 128
18 | CC(C)C1=CC2CC3(C=O)C4CC[C@@H](C)C4CC2(CCOC(=O)c2ccc(Br)cc2)C13C(=O)O (stereo partly drawn) | > 128 | > 128
19 | CC(C)C1=CC2CC3(C=O)[C@@H]4CC[C@@H](C)[C@H]4CC2(C(O)C#CC(C)(C)C)[C@]13C(=O)O (stereo partly drawn) | 128 (≈ 310 µM) | 128 (≈ 310 µM)
20 | CC(C)C1=CC2CC3(C=O)C4CC[C@@H](C)C4CC2(CCOC(=O)[C@@H]2CCCN2C(=O)OC(C)(C)C)C13C(=O)O (stereo partly drawn) | 128 (≈ 235 µM) | 16 (≈ 29.4 µM)
21 | CSc1ccc(C(=O)OCCC23CC4C(CC[C@H]4C)C4(C=O)CC2C=C(C(C)C)C43C(=O)O)cc1 (stereo partly drawn) | > 128 | 2 (≈ 4.03 µM)
22 | C=Cc1ccc(C(=O)OCCC23CC4C(CC[C@H]4C)C4(C=O)CC2C=C(C(C)C)C43C(=O)O)cc1 (stereo partly drawn) | > 128 | 4 (≈ 8.39 µM)
23 | CC(C)C1=CC2CC3(C=O)C4CC[C@@H](C)C4CC2(CCOC(=O)c2ccc(C#N)cc2)C13C(=O)O (stereo partly drawn) | > 128 | 8 (≈ 16.8 µM)
24 | CC(C)C1=CC2CC3(C=O)C4CC[C@@H](C)C4CC2(CCOC(=O)c2cccc(C#N)c2)C13C(=O)O (stereo partly drawn) | > 128 | 1 (≈ 2.1 µM)
25 | CC(C)C1=CC2CC3(C=O)C4CC[C@@H](C)C4CC2(CCOC(=O)c2ccc4c(c2)OCO4)C13C(=O)O (stereo partly drawn) | > 128 | 2 (≈ 4.04 µM)
26 | CC(C)C1=CC2CC3(C=O)C4CC[C@@H](C)C4CC2(CCOC(=O)c2ccc([N+](=O)[O-])cc2Cl)C13C(=O)O (stereo partly drawn) | > 128 | 128 (≈ 242 µM)
27 | CC(C)C1=CC2CC3(C=O)C4CC[C@@H](C)C4CC2(CCOC(=O)Cc2c[nH]c4ccccc24)C13C(=O)O (stereo partly drawn) | > 128 | 
28 | CC(C)C1=CC2CC3(C=O)C4CC[C@@H](C)C4CC2(CCOC(=O)C2CCC2)C13C(=O)O (stereo partly drawn) | 8 (≈ 18.7 µM) | 0.5 (≈ 1.17 µM)
29 | CC(C)C1=CC2CC3(C=O)C4CC[C@@H](C)C4CC2(CCOC(=O)c2ccc4[nH]cnc4c2)C13C(=O)O (stereo partly drawn) | > 128 | > 128
30 | CC(C)C1=CC2CC3(C=O)C4CC[C@@H](C)C4CC2(CCOC(=O)c2ccc(Cl)cc2)C13C(=O)O (stereo partly drawn) | > 128 | 4 (≈ 8.25 µM)
31 | CC(C)C1=CC2CC3(C=O)[C@@H]4CC[C@@H](C)[C@H]4CC2(C(O)CCc2ccccc2)[C@]13C(=O)O (stereo partly drawn) | > 128 | > 128
32 | CC(C)C1=CC2CC3(C=O)C4CC[C@@H](C)C4CC2(CCOC(=O)c2ccco2)C13C(=O)O (stereo partly drawn) | > 128 | 8 (≈ 18.2 µM)
